ChEMBL document CHEMBL5543132, “Development of (2-(Benzyloxy)phenyl)methanamine Derivatives as Potent and Selective Inhibitors of CARM1 for the Treatment of Melanoma” (J Med Chem, 2024)

Legend:
[1] = biological target: T1, Histone-arginine methyltransferase CARM1 (Homo sapiens, UniProt Q86X55)
T1 sequence (Q86X55 whole entry): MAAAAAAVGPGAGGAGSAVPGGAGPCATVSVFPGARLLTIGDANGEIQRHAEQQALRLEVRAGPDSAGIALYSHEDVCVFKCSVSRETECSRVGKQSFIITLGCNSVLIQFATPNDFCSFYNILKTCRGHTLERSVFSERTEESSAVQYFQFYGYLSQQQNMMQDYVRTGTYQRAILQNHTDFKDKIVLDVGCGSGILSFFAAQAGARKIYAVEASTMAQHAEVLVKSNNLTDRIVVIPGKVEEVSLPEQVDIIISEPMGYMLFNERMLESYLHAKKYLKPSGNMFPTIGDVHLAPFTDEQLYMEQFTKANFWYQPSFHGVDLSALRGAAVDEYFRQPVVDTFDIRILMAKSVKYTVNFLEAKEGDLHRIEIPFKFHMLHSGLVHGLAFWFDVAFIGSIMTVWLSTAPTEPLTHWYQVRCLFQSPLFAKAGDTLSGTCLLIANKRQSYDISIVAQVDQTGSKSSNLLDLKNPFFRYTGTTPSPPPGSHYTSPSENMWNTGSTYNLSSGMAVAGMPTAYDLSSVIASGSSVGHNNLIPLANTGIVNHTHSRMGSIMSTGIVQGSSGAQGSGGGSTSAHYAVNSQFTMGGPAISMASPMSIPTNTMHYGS
Description: Inhibition of CARM1 (unknown origin)

[2] = biological target: Protein arginine N-methyltransferase 5 (Homo sapiens, UniProt O14744); assay: Inhibition of PRMT5 (unknown origin)
[3] = biological target: Protein arginine N-methyltransferase 6 (Homo sapiens, UniProt Q96LA8); assay: Inhibition of PRMT6 (unknown origin)
[4] = biological target: Protein arginine N-methyltransferase 3 (Homo sapiens, UniProt O60678); assay: Inhibition of PRMT3 (unknown origin)
[5] = biological target: T2, Protein arginine N-methyltransferase 7 (Homo sapiens, UniProt Q9NVM4); assay: Inhibition of PRMT7 (unknown origin)
T2 sequence (Q9NVM4 whole entry): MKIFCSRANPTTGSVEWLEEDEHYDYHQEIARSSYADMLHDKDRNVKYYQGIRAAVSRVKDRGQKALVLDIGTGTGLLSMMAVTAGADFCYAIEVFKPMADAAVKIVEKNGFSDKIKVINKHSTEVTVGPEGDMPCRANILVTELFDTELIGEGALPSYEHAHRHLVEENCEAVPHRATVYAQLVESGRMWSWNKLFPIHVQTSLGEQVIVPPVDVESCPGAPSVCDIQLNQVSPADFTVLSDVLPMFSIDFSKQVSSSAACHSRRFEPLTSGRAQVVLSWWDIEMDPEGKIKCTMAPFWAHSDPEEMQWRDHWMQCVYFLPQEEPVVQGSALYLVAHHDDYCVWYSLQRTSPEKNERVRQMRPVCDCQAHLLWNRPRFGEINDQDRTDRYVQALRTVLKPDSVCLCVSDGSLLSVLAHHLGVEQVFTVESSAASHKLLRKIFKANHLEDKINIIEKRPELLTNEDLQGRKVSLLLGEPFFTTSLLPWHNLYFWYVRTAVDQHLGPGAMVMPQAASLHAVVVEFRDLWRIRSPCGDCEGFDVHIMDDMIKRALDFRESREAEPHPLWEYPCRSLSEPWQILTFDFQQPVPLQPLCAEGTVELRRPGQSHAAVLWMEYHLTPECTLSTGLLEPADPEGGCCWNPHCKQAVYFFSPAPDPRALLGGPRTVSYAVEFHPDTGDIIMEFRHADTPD

[6] = biological target: Protein arginine N-methyltransferase 8 (Homo sapiens, UniProt Q9NR22); assay: Inhibition of PRMT8 (unknown origin)
Chain of Protein arginine N-methyltransferase 8 (Q9NR22 whole entry): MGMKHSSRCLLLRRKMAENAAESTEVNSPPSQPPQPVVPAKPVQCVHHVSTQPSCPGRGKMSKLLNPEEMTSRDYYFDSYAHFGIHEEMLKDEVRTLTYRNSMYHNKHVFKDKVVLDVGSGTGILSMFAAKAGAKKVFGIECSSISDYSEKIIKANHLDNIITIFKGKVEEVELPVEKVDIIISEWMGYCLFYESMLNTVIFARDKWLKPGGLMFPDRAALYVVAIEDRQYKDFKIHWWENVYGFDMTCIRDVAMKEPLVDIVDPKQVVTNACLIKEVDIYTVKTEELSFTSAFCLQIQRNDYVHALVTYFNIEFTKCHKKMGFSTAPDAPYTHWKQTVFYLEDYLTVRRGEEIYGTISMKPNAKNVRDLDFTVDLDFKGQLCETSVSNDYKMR

Chain of Protein arginine N-methyltransferase 3 (O60678 whole entry): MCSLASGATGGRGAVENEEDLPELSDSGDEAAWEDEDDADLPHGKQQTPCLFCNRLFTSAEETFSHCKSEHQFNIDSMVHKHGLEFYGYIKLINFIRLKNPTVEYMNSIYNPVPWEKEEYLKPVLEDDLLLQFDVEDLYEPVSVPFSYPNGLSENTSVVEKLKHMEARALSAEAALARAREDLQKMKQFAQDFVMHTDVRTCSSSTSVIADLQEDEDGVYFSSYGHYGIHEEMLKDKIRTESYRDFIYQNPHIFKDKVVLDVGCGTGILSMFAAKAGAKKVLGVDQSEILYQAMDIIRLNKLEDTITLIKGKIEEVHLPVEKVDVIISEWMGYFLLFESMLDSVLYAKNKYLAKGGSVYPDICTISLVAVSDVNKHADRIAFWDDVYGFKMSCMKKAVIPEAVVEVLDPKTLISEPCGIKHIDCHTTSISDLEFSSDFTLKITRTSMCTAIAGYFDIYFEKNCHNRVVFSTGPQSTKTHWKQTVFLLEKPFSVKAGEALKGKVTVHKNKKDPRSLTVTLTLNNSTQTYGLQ
Chain of Protein arginine N-methyltransferase 6 (Q96LA8 whole entry): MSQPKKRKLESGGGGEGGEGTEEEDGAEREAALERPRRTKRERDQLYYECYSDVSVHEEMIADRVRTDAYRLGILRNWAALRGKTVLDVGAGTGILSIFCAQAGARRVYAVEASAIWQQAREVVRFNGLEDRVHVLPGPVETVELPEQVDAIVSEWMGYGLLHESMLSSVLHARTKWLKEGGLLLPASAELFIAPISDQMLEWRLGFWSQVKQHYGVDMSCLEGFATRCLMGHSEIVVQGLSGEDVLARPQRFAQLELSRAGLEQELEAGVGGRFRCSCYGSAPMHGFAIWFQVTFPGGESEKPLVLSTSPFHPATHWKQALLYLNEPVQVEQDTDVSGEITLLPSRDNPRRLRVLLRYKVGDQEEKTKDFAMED
Chain of Protein arginine N-methyltransferase 5 (O14744 whole entry): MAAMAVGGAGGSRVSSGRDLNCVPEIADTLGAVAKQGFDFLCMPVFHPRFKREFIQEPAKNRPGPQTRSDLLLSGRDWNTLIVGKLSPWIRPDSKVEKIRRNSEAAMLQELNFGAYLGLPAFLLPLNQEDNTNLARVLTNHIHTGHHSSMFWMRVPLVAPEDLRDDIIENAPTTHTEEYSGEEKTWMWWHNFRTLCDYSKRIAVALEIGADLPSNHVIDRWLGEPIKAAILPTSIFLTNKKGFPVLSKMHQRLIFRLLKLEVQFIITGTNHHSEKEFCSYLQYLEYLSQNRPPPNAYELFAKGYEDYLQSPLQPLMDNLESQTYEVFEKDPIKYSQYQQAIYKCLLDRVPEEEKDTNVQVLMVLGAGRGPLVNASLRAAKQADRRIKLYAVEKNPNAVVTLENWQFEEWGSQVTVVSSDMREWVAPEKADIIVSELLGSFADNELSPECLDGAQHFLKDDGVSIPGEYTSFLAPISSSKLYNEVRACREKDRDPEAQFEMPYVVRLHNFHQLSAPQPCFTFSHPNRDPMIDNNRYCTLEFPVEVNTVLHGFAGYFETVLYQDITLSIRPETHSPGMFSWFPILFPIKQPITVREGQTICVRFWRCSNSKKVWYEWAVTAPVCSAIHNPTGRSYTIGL

| IC50 [2] [nM] | IC50 [3] [nM] | IC50 [4] [nM] | IC50 [5] [nM] | IC50 [6] [nM] | Structure (SMILES) | IC50 [1] [nM] |
| --- | --- | --- | --- | --- | --- | --- |
| – | – | – | – | – | CNCC(O)CN1CCc2c(cccc2OCc2ccc(-c3nccs3)cc2)C1 (stereo unspecified) | 21 |
| > 100000 | 64 | 942 | > 100000 | 73 | CNC[C@H](O)CN(C)Cc1ccccc1OCc1ccc(-c2nccs2)c(Cl)c1 | – |
